Molecular target: T1, human full-length MKNK1 (Homo sapiens, UniProt Q9BUB5, T385D)
T1 construct: purchased Carna Biosciences 02-145; host or cells: insect cells, baculovirus expression system
Assay: MKNK1 kinase high ATP assay (TR-FRET)
Format: biochemical
Details: high ATP (2 mM), 15 min preincubation with enzyme, GST-MKNK1 (T344D)
In short: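 GST-tagged full-length human MKNK1 (aa 1-424, T344D), baculovirus-expressed, preincubated 15 min with compound, then reacted 30 min at 22 °C with 2 mM ATP and 0.06 µM biotinylated peptide (final).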

T1 sequence (Q9BUB5 1-424 isoform Q9BUB5-2 T344D): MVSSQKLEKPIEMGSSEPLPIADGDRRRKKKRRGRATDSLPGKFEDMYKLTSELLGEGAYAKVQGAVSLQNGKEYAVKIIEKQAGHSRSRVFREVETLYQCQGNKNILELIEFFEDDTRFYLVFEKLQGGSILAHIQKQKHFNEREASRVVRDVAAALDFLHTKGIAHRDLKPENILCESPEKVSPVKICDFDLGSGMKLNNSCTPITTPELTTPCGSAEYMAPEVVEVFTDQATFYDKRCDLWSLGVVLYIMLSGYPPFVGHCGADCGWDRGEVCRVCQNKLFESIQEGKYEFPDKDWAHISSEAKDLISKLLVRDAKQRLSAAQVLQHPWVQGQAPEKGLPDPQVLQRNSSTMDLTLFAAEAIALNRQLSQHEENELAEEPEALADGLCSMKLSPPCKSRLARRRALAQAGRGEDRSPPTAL

IC50 [nM]	SMILES
511	CS(=O)(=O)CCCNC(=O)C1CCc2[nH]c3ncnc(Nc4cccc(-c5cnco5)c4)c3c2C1 (racemic) [Example 55, (RS)—N-[3-(Methylsulfonyl)propyl]-4-{[3-(1,3-oxazol-5-yl)phenyl]amino}-6,7,8,9-tetrahydro-5H-pyrimido[4,5-b]indole-6-carboxamide]
220	CC(C)Oc1cc(F)ccc1Nc1ncnc2[nH]c3c(c12)C[S+]([O-])CC3 (racemic) [Example 86, (RS)—N-(4-Fluoro-2-isopropoxyphenyl)-5,7,8,9-tetrahydrothiopyrano[3′,4′:4,5]pyrrolo[2,3-d]pyrimidin-4-amine 6-oxide]
2840	CS(=O)(=O)CCCNC(=O)C1CCc2[nH]c3ncnc(Nc4ccc(S(N)(=O)=O)cc4)c3c2C1 (racemic) [Example 48, (RS)—N-[3-(Methylsulfonyl)propyl]-4-[(4-sulfamoylphenyl)amino]-6,7,8,9-tetrahydro-5H-pyrimido[4,5-b]indole-6-carboxamide]
2890	O=C(Nc1ccccc1)C1CCc2[nH]c3ncnc(Nc4ccccc4OC4CCCC4)c3c2C1 (racemic) [Example 193, (RS)-4-{[2-(Cyclopentyloxy)phenyl]amino}-N-phenyl-6,7,8,9-tetrahydro-5H-pyrimido[4,5-b]indole-6-carboxamide]
113	CS(=O)(=O)CCCNC(=O)C1CCc2[nH]c3ncnc(Nc4ccccc4OCC(F)F)c3c2C1 (racemic) [Example 152, (RS)-4-{[2-(2,2-Difluoroethoxy)phenyl]amino}-N-[3-(methylsulfonyl)propyl]-6,7,8,9-tetrahydro-5H-pyrimido[4,5-b]indole-6-carboxamide]
≥ 20000	Nc1cc(F)c([N+](=O)[O-])cc1Nc1ncnc2[nH]c3c(c12)CCCC3 [Example 109]
10	COc1cc2[nH]c(=O)sc2cc1Nc1ncnc2[nH]c3c(c12)CC(F)(F)CC3 [Example 238, 6-[(6,6-Difluoro-6,7,8,9-tetrahydro-5H-pyrimido[4,5-b]indol-4-yl)amino]-5-methoxy-1,3-benzothiazol-2(3H)-one]
10800	COc1cc(N2CCOCC2)ccc1Nc1ncnc2[nH]c3c(c12)CC(C(=O)NCCCS(C)(=O)=O)CC3 (racemic) [Example 71, (RS)-4-{[2-Methoxy-4-(morpholin-4-yl)phenyl]amino}-N-[3-(methylsulfonyl)propyl]-6,7,8,9-tetrahydro-5H-pyrimido[4,5-b]indole-6-carboxamide]
120	COc1cc(Cl)c(C)cc1Nc1ncnc2[nH]c3c(c12)CC(C(=O)NCCCS(C)(=O)=O)CC3 (racemic) [Example 162, (RS)-4-[(4-Chloro-2-methoxy-5-methylphenyl)amino]-N-[3-(methylsulfonyl)propyl]-6,7,8,9-tetrahydro-5H-pyrimido[4,5-b]indole-6-carboxamide]
85	CC(C)Oc1cc(F)ccc1Nc1ncnc2[nH]c3c(c12)CC(F)(F)CC3 [Example 9, 6,6-Difluoro-N-(4-fluoro-2-isopropoxyphenyl)-6,7,8,9-tetrahydro-5H-pyrimido[4,5-b]indol-4-amine]
1160	COc1cccc(Nc2ncnc3[nH]c4c(c23)CC(C(=O)NCCCS(C)(=O)=O)CC4)c1OC (racemic) [Example 74, (RS)-4-[(2,3-Dimethoxyphenyl)amino]-N-[3-(methylsulfonyl)propyl]-6,7,8,9-tetrahydro-5H-pyrimido[4,5-b]indole-6-carboxamide]
93	COc1ccc(C(F)(F)F)cc1Nc1ncnc2[nH]c3c(c12)CC(C(=O)N1CCN(C)CC1)CC3 (racemic) [Example 215, (RS)-(4-{[2-Methoxy-5-(trifluoromethyl)phenyl]amino}-6,7,8,9-tetrahydro-5H-pyrimido[4,5-b]indol-6-yl)(4-methylpiperazin-1-yl)methanone]
48	COCC1(OC)CCc2[nH]c3ncnc(Nc4cc5cn[nH]c5cc4OC)c3c2C1 (racemic) [Example 136]
4050	COc1cc(NS(C)(=O)=O)ccc1Nc1ncnc2[nH]c3c(c12)CCCC3 [Example 129]
24	FC1(F)CCc2[nH]c3ncnc(Nc4ccc5[nH]ncc5c4)c3c2C1 [Example 10, 6,6-Difluoro-N-(1H-indazol-5-yl)-6,7,8,9-tetrahydro-5H-pyrimido[4,5-b]indol-4-amine]
48	CC(C)Oc1cc(F)ccc1Nc1ncnc2[nH]c3c(c12)CCC3 [Example 70, N-(4-Fluoro-2-isopropoxyphenyl)-5,6,7,8-tetrahydrocyclopenta[4,5]pyrrolo[2,3-d]pyrimidin-4-amine]
53	CC(C)NC(=O)C1CCc2[nH]c3ncnc(Nc4ccc(F)cc4OC(C)C)c3c2C1 (racemic) [Example 223, (RS)-4-{[4-Fluoro-2-(propan-2-yloxy)phenyl]amino}-N-(propan-2-yl)-6,7,8,9-tetrahydro-5H-pyrimido[4,5-b]indole-6-carboxamide]

IC50 [nM]	SMILES
3600	CCOC(=O)C1CCc2[nH]c3ncnc(N4CCc5ccccc54)c3c2C1 (racemic) [Example 173, (RS)-Ethyl 4-(2,3-dihydro-1H-indol-1-yl)-6,7,8,9-tetrahydro-5H-pyrimido[4,5-b]indole-6-carboxylate]
306	COc1cc(Nc2ncnc3[nH]c4c(c23)CC(C(=O)NCCCS(C)(=O)=O)CC4)ccc1F (racemic) [Example 34, (RS)-4-[(4-Fluoro-3-methoxyphenyl)amino]-N-[3-(methylsulfonyl)propyl]-6,7,8,9-tetrahydro-5H-pyrimido[4,5-b]indole-6-carboxamide]
444	COc1cc(F)c(Cl)cc1Nc1ncnc2[nH]c3c(c12)CC(C(=O)NCCCS(C)(=O)=O)CC3 (racemic) [Example 157, (RS)-4-[(5-Chloro-4-fluoro-2-methoxyphenyl)amino]-N-[3-(methylsulfonyl)propyl]-6,7,8,9-tetrahydro-5H-pyrimido[4,5-b]indole-6-carboxamide]
5	COc1cc2[nH]ncc2cc1Nc1ncnc2[nH]c3c(c12)CC(C(=O)NC(C)C)CC3 (racemic) [Example 216, (RS)-4-[(6-Methoxy-1H-indazol-5-yl)amino]-N-(propan-2-yl)-6,7,8,9-tetrahydro-5H-pyrimido[4,5-b]indole-6-carboxamide]
1360	CS(=O)(=O)CCCNC(=O)C1CCc2[nH]c3ncnc(Nc4cccc5c4OC(F)(F)O5)c3c2C1 (racemic) [Example 60, (RS)-4-[(2,2-Difluoro-1,3-benzodioxol-4-yl)amino]-N-[3-(methylsulfonyl)propyl]-6,7,8,9-tetrahydro-5H-pyrimido[4,5-b]indole-6-carboxamide]
6	CCNC(=O)C1CCc2[nH]c3ncnc(Nc4cc5cn[nH]c5cc4OC)c3c2C1 (racemic) [Example 218, (RS)—N-Ethyl-4-[(6-methoxy-1H-indazol-5-yl)amino]-6,7,8,9-tetrahydro-5H-pyrimido[4,5-b]indole-6-carboxamide]
≥ 20000	c1ccc(N2CCOCC2)c(Nc2ncnc3[nH]c4c(c23)CCCC4)c1 [Example 118]
104	COc1ccc(Cl)cc1Nc1ncnc2[nH]c3c(c12)CCCC3 [Example 125]
313	COc1cc(Cl)c(Cl)cc1Nc1ncnc2[nH]c3c(c12)CC(C(=O)Nc1ccccc1)CC3 (racemic) [Example 22, (RS)-4-[(4,5-Dichloro-2-methoxyphenyl)amino]-N-phenyl-6,7,8,9-tetrahydro-5H-pyrimido[4,5-b]indole-6-carboxamide]
59	COc1ccc(F)cc1Nc1ncnc2[nH]c3c(c12)CC(C(=O)NCCCS(C)(=O)=O)CC3 (racemic) [Example 39, (RS)-4-[(5-Fluoro-2-methoxyphenyl)amino]-N-[3-(methylsulfonyl)propyl]-6,7,8,9-tetrahydro-5H-pyrimido[4,5-b]indole-6-carboxamide]
4140	COc1ccc(Nc2ncnc3[nH]c4c(c23)CC(C(=O)NCCCS(C)(=O)=O)CC4)c(OC)c1 (racemic) [Example 73, (RS)-4-[(2,4-Dimethoxyphenyl)amino]-N-[3-(methylsulfonyl)propyl]-6,7,8,9-tetrahydro-5H-pyrimido[4,5-b]indole-6-carboxamide]
190	CS(=O)(=O)CCCNC(=O)C1CCc2[nH]c3ncnc(Nc4ccccc4OCC4CC4)c3c2C1 (racemic) [Example 151, (RS)-4-{[2-(Cyclopropylmethoxy)phenyl]amino}-N-[3-(methylsulfonyl)propyl]-6,7,8,9-tetrahydro-5H-pyrimido[4,5-b]indole-6-carboxamide]
149	O=C(O)C1CCc2[nH]c3ncnc(Nc4ccc(Cl)c(Cl)c4)c3c2C1 (racemic) [Example 233, (RS)-4-[(3,4-Dichlorophenyl)amino]-6,7,8,9-tetrahydro-5H-pyrimido[4,5-b]indole-6-carboxylic acid]
1100	COc1ccc(F)cc1Nc1ncnc2[nH]c3c(c12)CC(C(=O)O)CC3 (racemic) [Example 181, (RS)-4-[(5-Fluoro-2-methoxyphenyl)amino]-6,7,8,9-tetrahydro-5H-pyrimido[4,5-b]indole-6-carboxylic acid]
406	CC(C)Oc1cc(F)ccc1Nc1ncnc2[nH]c3c(c12)CC(C(=O)O)CC3 (racemic) [Example 183, (RS)-4-{[4-Fluoro-2-(propan-2-yloxy)phenyl]amino}-6,7,8,9-tetrahydro-5H-pyrimido[4,5-b]indole-6-carboxylic acid]
400	COc1ccc(C(F)(F)F)cc1Nc1ncnc2[nH]c3c(c12)CC(C(=O)O)CC3 (racemic) [Example 103, (RS)-4-{[2-Methoxy-5-(trifluoromethyl)phenyl]amino}-6,7,8,9-tetrahydro-5H-pyrimido[4,5-b]indole-6-carboxylic acid]
2750	CC(C)NC(=O)C1CCc2[nH]c3ncnc(N4CCc5ccccc54)c3c2C1 (racemic) [Example 208, (RS)-4-(2,3-Dihydro-1H-indol-1-yl)-N-(propan-2-yl)-6,7,8,9-tetrahydro-5H-pyrimido[4,5-b]indole-6-carboxamide]

— patent publication US20150133426A1, “SUBSTITUTED PYRROLOPYRIMIDINES” (BAYER PHARMA AKTIENGESELLSCHAFT, priority 2012, published 2015)
